Patent US11634447B2 (priority 2012, dated 2023)
Several values for one entry are separate records, joined by “and”; a condition that tells them apart may be missing. Equal entries are not always repeated.

Experiments:
FimH-CRD [1] = target: T1, FimH-CRD (Escherichia coli, UniProt P08191); assay: Competitive binding assay by fluorescence polarization, assay 2 (compounds prepared by a robotics system, plates frozen and thawed); set-up: species or system E. coli
T1 construct: The first 177 amino acids of the FimH protein are expressed as a fusion protein; thrombin tag (printed as 'fusion protein with thrombin') (cleaved yes); made in house; host or cells: bacteria (pET21b plasmid)
T1 sequence (P08191 22-177): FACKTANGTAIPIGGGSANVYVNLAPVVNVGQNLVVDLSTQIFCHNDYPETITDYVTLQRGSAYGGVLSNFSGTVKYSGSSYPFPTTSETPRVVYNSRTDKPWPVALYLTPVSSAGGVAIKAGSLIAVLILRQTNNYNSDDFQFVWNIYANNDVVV
Protocol: (§1) The first 177 amino acids of the FimH protein are expressed as a fusion protein with thrombin in a pET21b plasmid in bacteria. This FimH protein sequence contains the carbohydrate recognition domain (CRD) and shall be termed FimH-CRD. Following bacterial expression of the protein, the FimH-CRD protein is purified to homogeneity and the thrombin tag removed by protease cleavage. A competitive binding assay by fluorescence polarization is performed using 5 nM of the Alexa 647 mannoside probe and 60 nM of the FimH-CRD. The samples are assayed in a low volume 384 well microtiter plate in a final volume of 20 μl. The final assay buffer conditions are the following, 50 mM Tris-Cl, ph 7.0, 100 mM NaCl, 1 mM EDTA, 5 mM β-mercaptoethanol, 0.05% BSA and 2.5% DMSO. Two assays are performed for FimH, termed assay 1 or assay 2. The assay conditions are the same for both assays except the following: assay 1 has compounds prepared by manual dilution in a serial dilution factor with 12-point dose response while assay 2 has compounds prepared by a robotics system also through a serial dilution factor (12 point dose response) and initially prepared in duplicate in 384 well-Corning polypropylene round bottom plates. The assay 2 plates have compound which is then frozen and must be thawed prior to use. Initially the Alexa 647 probe and the FimH-CRD are added to the assay buffer and then 0.5 μl of test compound (assay 1 or 2) between 0.4 nM to 75 μM final concentration are added (12 point titration with 3-fold serial dilution). Control wells for the Alexa 647 probe are prepared with the same conditions except for the addition of the FimH-CRD protein. Plates are then incubated for 5 hrs at room temperature in the dark and under humid conditions to prevent drying. Plates are read using the SpectraMax Paradigm multi-mode plate reader and the appropriate fluorescent polarization detection cartridge (Alexa-647).
(§2) Alexa 647 mannoside probe is prepared using the similar procedure reported for FAM mannoside (Han, Z. et. al., 2010, J. Med. Chem., 53, 4779) and is described in the scheme below.
(§3) To a blue colored stirred solution of (2S,3S,4S,5S,6R)-2-(4-aminobutoxy)-6-(hydroxymethyl)tetrahydropyran-3,4,5-triol (2.21 mg, 0.009 mmol) and the (2E)-2-[(2E,4E)-5-[3,3-dimethyl-5-sulfonato-1-(3-sulfonatopropyl)indol-1-ium-2-yl]penta-2,4-dienylidene]-3-[6-(2,5-dioxopyrrolidin-1-yl)oxy-6-oxo-hexyl]-3-methyl-1-(3-sulfonatopropyl)indoline-5-sulfonate (Potassium Ion (3)) (4.9 mg, 0.0044 mmol) in DMF (44 μL) is added Et3N (5.4 mg, 7.0 μL, 0.053 mmol) at RT. The solution is stirred at room temperature over night, concentrated, dissolved in water and purified on 12 g C-18 silica gel cartridge on Isolera system using acetonitrile in water (0 to 40%, 10 CV) and followed by lyophilization to afford Alexa 647 mannoside probe (3.3 mg, 34%) as deep blue solid.
(§4) The Kd values of the compounds are determined from dose response curves using twelve concentrations per compound in duplicate. Curves are fitted to data points using Fluorescence Polarization competitive displacement analysis, and Kds are interpolated from the resulting curves using GraphPad Prism software, version […] (GraphPad software Inc., San Diego, Calif., USA).

[2] = system: bacterial strain LF82 binding to the glycoprotein BSA-(Mannose)3; assay: Bacterial Binding Assay (BBA); type: cell-based, Escherichia coli; settings: read-out: Bacterial Binding Assay IC50, LF82/Luciferase strain binding to BSA-(Man)3 coated plates, luminescence
Outline: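 Inhibition of LF82/luciferase E. coli adhesion is read as luminescence after washing off unbound cells. Compound and bacteria (10^7 per well) are co-incubated 40-75 min at room temperature on wells coated with 0.5-2 μg/mL BSA-(Man)3, with BSA-only wells as background; IC50 values derived.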

FimH-CRD [3] = target: T1, FimH-CRD; assay: Competitive binding assay by fluorescence polarization, assay 1 (compounds prepared by manual dilution); set-up: species or system E. coli
Protocol: as §1, §2, §3, §4

[4] = Assay 2 Kd, 5 nM Alexa 647 mannoside probe, 60 nM FimH-CRD, replicate values in one cell
[5] = read-out: Assay 2 Kd, 5 nM Alexa 647 mannoside probe, 60 nM FimH-CRD, replicate values in one cell
[6] = Assay 1 Kd, 5 nM Alexa 647 mannoside probe, 60 nM FimH-CRD, replicate values in one cell

SMILES	Kd (FimH-CRD [1]; [4])	Kd (FimH-CRD [1]; [5]) [nM]	IC50 [2] [nM]	Kd (FimH-CRD [3]; [6])	Kd (FimH-CRD [3]; read-out: Assay 1 Kd, 5 nM Alexa 647 mannoside probe, 60 nM FimH-CRD, replicate values in one cell) [nM]
OC[C@H]1O[C@H](C#Cc2cccc(C#C[C@H]3O[C@H](CO)[C@@H](O)[C@H](O)[C@@H]3O)c2)[C@@H](O)[C@@H](O)[C@@H]1O [Compound 57, (2R,3S,4R,5S,6R)-2-(Hydroxymethyl)-6-[2-[3-[2-[(2R,3S,4R,5S,6R)-3,4,5-trihydroxy-6-(hydroxymethyl)tetrahydropyran-2-yl]ethynyl]phenyl]ethynyl]tetrahydropyran-3,4,5-triol]	< 5 nM	< 5	27		
OC[C@H]1O[C@H](C#Cc2ccc(C#C[C@H]3O[C@H](CO)[C@@H](O)[C@H](O)[C@@H]3O)cc2)[C@@H](O)[C@@H](O)[C@@H]1O [Compound 53, (2R,3S,4R,5S,6R)-2-(Hydroxymethyl)-6-[2-[4-[2-[(2R,3S,4R,5S,6R)-3,4,5-trihydroxy-6-(hydroxymethyl)tetrahydropyran-2-yl]ethynyl]phenyl]ethynyl]tetrahydropyran-3,4,5-triol]	< 5 nM	< 5	55		
OC[C@H]1O[C@H](c2ccc(-c3cccc([C@H]4O[C@H](CO)[C@@H](O)[C@H](O)[C@@H]4O)c3)cc2)[C@@H](O)[C@@H](O)[C@@H]1O [Compound 5, (2R,2,3S,3,4R,4,5S,5,6R,6)-6,6([1,1Biphenyl]-3,4diyl)bis(2-(hydroxymethyl)tetrahydro-2H-pyran-3,4,5-triol)]	49 nM and < 5 nM (2×)		580	< 5 nM	< 5
OC[C@H]1O[C@H](C#Cc2ccc3ccc(C#C[C@H]4O[C@H](CO)[C@@H](O)[C@H](O)[C@@H]4O)cc3c2)[C@@H](O)[C@@H](O)[C@@H]1O [Compound 58, (2R,3S,4R,5S,6R)-2-(Hydroxymethyl)-6-[2-[7-[2-[(2R,3S,4R,5S,6R)-3,4,5-trihydroxy-6-(hydroxymethyl)tetrahydropyran-2-yl]ethynyl]-2-naphthyl]ethynyl]tetrahydropyran-3,4,5-triol]	< 5 nM	< 5	17		
OC[C@H]1O[C@H](C#CC#C[C@H]2O[C@H](CO)[C@@H](O)[C@H](O)[C@@H]2O)[C@@H](O)[C@@H](O)[C@@H]1O [Compound 54, (2R,3S,4R,5S,6R)-2-(hydroxymethyl)-6-[4-[(2R,3S,4R,5S,6R)-3,4,5-trihydroxy-6-(hydroxymethyl)tetrahydropyran-2-yl]buta-1,3-diynyl]tetrahydropyran-3,4,5-triol]	16 nM and 30 nM		1150		
OC[C@H]1O[C@H](C#Cc2ccc3cc(C#C[C@H]4O[C@H](CO)[C@@H](O)[C@H](O)[C@@H]4O)ccc3c2)[C@@H](O)[C@@H](O)[C@@H]1O [Compound 59, (2R,3S,4R,5S,6R)-2-(Hydroxymethyl)-6-[2-[6-[2-[(2R,3S,4R,5S,6R)-3,4,5-trihydroxy-6-(hydroxymethyl)tetrahydropyran-2-yl]ethynyl]-2-naphthyl]ethynyl]tetrahydropyran-3,4,5-triol]	< 5 nM	< 5	8.2		
O=C(NCCCCCNC(=O)c1cccc([C@H]2O[C@H](CO)[C@@H](O)[C@H](O)[C@@H]2O)c1)c1cccc([C@H]2O[C@H](CO)[C@@H](O)[C@H](O)[C@@H]2O)c1 [Compound 11, (R,R,S,R,S)-N,N′-(Pentane-1,5-diyl)bis(3-((2R,3S,4R,5S,6R)-3,4,5-trihydroxy-6-(hydroxymethyl)tetrahydro-2H-pyran-2-yl)benzamide)]	16 nM			< 5 nM and 11 nM	
O=C(NCCCNC(=O)c1cccc([C@H]2O[C@H](CO)[C@@H](O)[C@H](O)[C@@H]2O)c1)c1cccc([C@H]2O[C@H](CO)[C@@H](O)[C@H](O)[C@@H]2O)c1 [Compound 9, (R,R,S,R,S)-N,N′-(Propane-1,3-diyl)bis(3-((2R,3S,4R,5S,6R)-3,4,5-trihydroxy-6-(hydroxymethyl)tetrahydro-2H-pyran-2-yl)benzamide)]	24 nM			7 nM and 12 nM	
OC[C@H]1O[C@H](C#Cc2cccc3c(C#C[C@H]4O[C@H](CO)[C@@H](O)[C@H](O)[C@@H]4O)cccc23)[C@@H](O)[C@@H](O)[C@@H]1O [Compound 60, (2R,3S,4R,5S,6R)-2-(Hydroxymethyl)-6-[2-[5-[2-[(2R,3S,4R,5S,6R)-3,4,5-trihydroxy-6-(hydroxymethyl)tetrahydropyran-2-yl]ethynyl]-1-naphthyl]ethynyl]tetrahydropyran-3,4,5-triol]	< 5 nM	< 5	13		
OC[C@H]1O[C@H](c2cccc(C#CC#Cc3cccc([C@H]4O[C@H](CO)[C@@H](O)[C@H](O)[C@@H]4O)c3)c2)[C@@H](O)[C@@H](O)[C@@H]1O [Compound 50, ((2R,3S,4R,5S,6R)-2-(Hydroxymethyl)-6-[3-[4-[3-[(2R,3S,4R,5S,6R)-3,4,5-trihydroxy-6-(hydroxymethyl)tetrahydropyran-2-yl]phenyl]buta-1,3-diynyl]phenyl]tetrahydropyran-3,4,5-triol)]	9 nM and < 5 nM (2×)		950		
OC[C@H]1O[C@H](C/C=C/c2ccc(C#C[C@H]3O[C@H](CO)[C@@H](O)[C@H](O)[C@@H]3O)cc2)[C@@H](O)[C@@H](O)[C@@H]1O [Compound 55, (2R,3S,4R,5S,6R)-2-(Hydroxymethyl)-6-[(E)-3-[4-[2-[(2R,3S,4R,5S,6R)-3,4,5-trihydroxy-6-(hydroxymethyl)tetrahydropyran-2-yl]ethynyl]phenyl]allyl]tetrahydropyran-3,4,5-triol]	< 5 nM and 5 nM		210		
OC[C@H]1O[C@H](c2ccc3cc(C#C[C@H]4O[C@H](CO)[C@@H](O)[C@H](O)[C@@H]4O)ccc3c2)[C@@H](O)[C@@H](O)[C@@H]1O [Compound 56, (2R,3S,4R,5S,6R)-2-(Hydroxymethyl)-6-[2-[6-[(2R,3S,4R,5S,6R)-3,4,5-trihydroxy-6-(hydroxymethyl)tetrahydropyran-2-yl]-2-naphthyl]ethynyl]tetrahydropyran-3,4,5-triol]	< 5 nM	< 5	20		
OC[C@H]1O[C@H](c2cn([C@H]3O[C@H](CO)[C@@H](O)[C@H](O)[C@@H]3O)nn2)[C@@H](O)[C@@H](O)[C@@H]1O [Compound 42, ((2R,3S,4R,5S,6R)-2-(Hydroxymethyl)-6-[1-[(2S,3S,4S,5S,6R)-3,4,5-trihydroxy-6-(hydroxymethyl)tetrahydropyran-2-yl]triazol-4-yl]tetrahydropyran-3,4,5-triol)]	140 nM and 145 nM			114 nM and 377 nM	
OC[C@H]1O[C@H](c2cccc(CCCCc3cccc([C@H]4O[C@H](CO)[C@@H](O)[C@H](O)[C@@H]4O)c3)c2)[C@@H](O)[C@@H](O)[C@@H]1O [Compound 52, ((2R,3S,4R,5S,6R)-2-(Hydroxymethyl)-6-[3-[4-[3-[(2R,3S,4R,5S,6R)-3,4,5-trihydroxy-6-(hydroxymethyl)tetrahydropyran-2-yl]phenyl]butyl]phenyl]tetrahydropyran-3,4,5-triol)]	< 5 nM	< 5	660		
O=C(Nc1cccc([C@H]2O[C@H](CO)[C@@H](O)[C@H](O)[C@@H]2O)c1)Nc1cccc([C@H]2O[C@H](CO)[C@@H](O)[C@H](O)[C@@H]2O)c1 [Compound 51, (1,3-Bis(3-((2R,3S,4R,5S,6R)-3,4,5-trihydroxy-6-(hydroxymethyl)tetrahydro-2H-pyran-2-yl)phenyl)urea)]	15 nM and < 5 nM		830		
